According to ChEMBL document CHEMBL1201862, “PubChem BioAssay data set” (2004):
Activity calls are given as the source filed them.

What was measured:
[1] = fluconazole-exposed Candida albicans growth modulators – fluorescence, retest, confirmation (AID 2467); type: functional, cell-based
Interleukin-8 [2] = biological target: T1, Interleukin-8 (Homo sapiens, UniProt P10145); test: Dose Response confirmation of uHTS small molecule hits for cystic fibrosis induced NFkb Inhibitors in a PAF-induced IL8 counterscreen.; type: functional; details: read-out: IC50_Mean
T1 sequence (P10145 whole entry): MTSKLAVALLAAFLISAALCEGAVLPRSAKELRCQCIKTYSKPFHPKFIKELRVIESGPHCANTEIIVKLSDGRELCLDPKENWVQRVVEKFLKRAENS

[3] = NIH-3T3 fibroblast cytotoxicity, dose response, cytotoxicity control, cell-based, fluorescence, Alamar Blue, secondary assay (AID 2327); type: functional;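 note: NIH-3T3 mouse fibroblasts cultured with fluconazole at 8 µg/mL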
Interleukin-8 [4] = biological target: T1, Interleukin-8; test: Dose Response confirmation of uHTS small molecule hits for cystic fibrosis induced NFkb Inhibitors in a TNFa-induced IL8 counterscreen.; type: functional; details: read-out: IC50_Mean
Paired box protein Pax-8 = Paired box protein Pax-8 (Homo sapiens, UniProt Q06710); test: PAX8 transcriptional activity inhibition in RMG-I – RMG-I cells, luciferase, cherry-pick, dose response (AID 687027); type: functional, cell-based;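 note: luciferase reporter driven by Pax8 target thyroperoxidase promoter measured by SteadyGlo luminescence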
[5] = reduction of Shn3 3'UTR-driven luciferase in osteoblasts – cell-based, Clone20 osteoblasts, firefly luciferase, cherry-picked, dose response (AID 624132); type: functional;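 note: firefly luciferase luminescence from reporter carrying the Shn3 3'UTR in osteoblasts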
[6] = loss of viability in HepG2 cells – cell-based, CellTiter-Glo, cherry-picked, cytotoxicity control for Shn3 inhibitor project, dose response (AID 624134); type: functional
[7] = non-specific 3'UTR reporter inhibition in Clone20-Shn3RL – cell-based, Renilla luciferase, cherry-picked, counter-screen for Shn3 inhibitor project, dose response (AID 624133); type: functional
[8] = Fluorescence-based cell-based high throughput dose response assay for inhibitors of the interaction of nucleotide-binding oligomerization domain containing 2 (NOD2) and the receptor-interacting serine-threonine kinase 2 (RIPK2).; type: functional; details: Homo sapiens
Insulin-degrading enzyme [9] = biological target: T2, Insulin-degrading enzyme (Homo sapiens, UniProt P14735); test: recombinant IDE activation, cell-free – biochemical, fluorescence polarization, counter-screen for IDE activator project, dose response (AID 588681)
T2 sequence (P14735 whole entry): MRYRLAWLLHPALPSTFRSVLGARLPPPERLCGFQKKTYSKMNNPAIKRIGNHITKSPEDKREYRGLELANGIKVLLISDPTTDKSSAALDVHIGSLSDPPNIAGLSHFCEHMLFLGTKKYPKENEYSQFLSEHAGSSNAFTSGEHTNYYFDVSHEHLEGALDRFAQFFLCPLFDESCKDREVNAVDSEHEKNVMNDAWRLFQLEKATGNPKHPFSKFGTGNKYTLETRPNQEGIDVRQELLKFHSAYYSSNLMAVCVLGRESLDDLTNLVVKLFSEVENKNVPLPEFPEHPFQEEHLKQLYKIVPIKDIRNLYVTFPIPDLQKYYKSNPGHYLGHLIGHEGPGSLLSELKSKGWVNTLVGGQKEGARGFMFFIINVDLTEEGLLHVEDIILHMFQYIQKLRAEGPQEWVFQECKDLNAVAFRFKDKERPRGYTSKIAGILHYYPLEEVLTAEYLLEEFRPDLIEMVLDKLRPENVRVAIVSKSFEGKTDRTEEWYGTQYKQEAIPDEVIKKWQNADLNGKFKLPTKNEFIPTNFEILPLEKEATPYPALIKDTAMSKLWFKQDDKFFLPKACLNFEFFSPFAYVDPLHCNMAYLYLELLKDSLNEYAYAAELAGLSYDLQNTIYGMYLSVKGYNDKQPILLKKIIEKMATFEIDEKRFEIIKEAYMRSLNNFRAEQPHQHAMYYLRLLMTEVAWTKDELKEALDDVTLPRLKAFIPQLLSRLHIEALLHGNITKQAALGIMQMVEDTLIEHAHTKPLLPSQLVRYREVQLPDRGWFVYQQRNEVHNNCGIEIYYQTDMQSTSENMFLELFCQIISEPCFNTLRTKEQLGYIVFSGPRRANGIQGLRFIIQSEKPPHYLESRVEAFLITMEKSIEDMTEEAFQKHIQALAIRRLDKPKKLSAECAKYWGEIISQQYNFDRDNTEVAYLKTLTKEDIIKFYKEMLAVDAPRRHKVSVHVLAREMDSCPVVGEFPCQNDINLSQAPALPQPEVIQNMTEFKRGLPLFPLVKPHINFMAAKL

Insulin-degrading enzyme [10] = biological target: T2, Insulin-degrading enzyme; test: cellular IDE activation of Abeta substrate cleavage – fluorescence polarization, HEK cells, dose response (AID 588439); type: functional, cell-based
HEK293 [11] = test: optical interference in Abeta FP readout, dose response, artefact control for IDE activator project, biochemical, fluorescence polarization (AID 588442); type: functional, cell-based; details: Homo sapiens
HEK293 [12] = test: membrane integrity loss in HEK cells – cell-based, fluorescence, cytotoxicity control for IDE activator project, dose response (AID 588440); type: functional; details: Homo sapiens;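 note: cytotoxicity by LDH release measuring loss of membrane integrity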
Leucine aminopeptidase = biological target: T3, Leucine aminopeptidase (Plasmodium falciparum 3D7, UniProt Q8IL11); test: P. falciparum M17LAP inhibitors, primary screen, biochemical, fluorogenic H-Leu-NHMec substrate, 1536-well (AID 1619); type: functional
T3 sequence (Q8IL11 whole entry): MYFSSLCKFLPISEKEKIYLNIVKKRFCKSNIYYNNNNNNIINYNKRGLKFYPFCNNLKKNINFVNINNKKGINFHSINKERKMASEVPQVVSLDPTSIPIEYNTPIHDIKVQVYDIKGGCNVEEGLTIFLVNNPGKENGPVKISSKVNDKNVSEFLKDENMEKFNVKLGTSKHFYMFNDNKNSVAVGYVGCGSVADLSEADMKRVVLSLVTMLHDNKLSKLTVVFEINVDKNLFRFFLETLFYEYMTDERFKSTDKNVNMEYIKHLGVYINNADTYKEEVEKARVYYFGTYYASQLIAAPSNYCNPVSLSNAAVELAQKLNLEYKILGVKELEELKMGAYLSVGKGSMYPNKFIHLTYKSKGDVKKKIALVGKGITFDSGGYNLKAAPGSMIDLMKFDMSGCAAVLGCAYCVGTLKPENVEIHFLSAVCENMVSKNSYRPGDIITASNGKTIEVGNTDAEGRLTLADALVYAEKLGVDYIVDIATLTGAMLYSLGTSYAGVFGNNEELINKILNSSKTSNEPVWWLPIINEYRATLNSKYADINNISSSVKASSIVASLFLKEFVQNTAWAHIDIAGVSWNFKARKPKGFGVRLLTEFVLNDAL

Melanocortin receptor 4 = Melanocortin receptor 4 (Homo sapiens, UniProt P32245); type: functional, cell-based;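 note: Cell-based assay with luminescence read-out, confirmatory dose-response testing for agonist activity of biased ligands at MC4R; human U2OS cells with tagged receptor and beta-arrestin; potency of agonists that increase receptor coupling to beta-arrestin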
[13] = NIH3T3 cell viability loss, ATP content – CellTiter-Glo luminescence, cherry-pick, set 2, cytotoxicity control for HSP40 inhibitor project, dose response (AID 624265); type: functional
[14] = Luminescence-based counterscreen assay for KLF5 inhibitors: dose response cell-based high throughput screening assay to identify cytotoxic compounds using the IEC-6 intestinal epithelial cell line. [Related pubchem assays: 1700 (Primary screen.), 1834 (Confirmation screen.), 1858 (Summary AID.), 1905 (Counterscreen.)]; type: functional
[15] = Luminescence Cell-Based Dose Retest to Confirm Inhibitors of Cancer Stem Cells. [Related pubchem assays (depositor defined):AID2717, AID2721]; type: functional; details: Homo sapiens
INS1 = test: INS-1E survival protection against cytokine death – cell-based, luminescence, retest, dose response (AID 449756); type: functional; details: Rattus norvegicus;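 note: cell death triggered by IL-1 beta plus TNF-alpha plus IFN-gamma mixture; protective hits raise ATP signal compared with cytokine alone wells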
[16] = biological target: Potassium voltage-gated channel subfamily KQT member 2 (Rattus norvegicus, UniProt O88943); test: blockers of KCNQ2 channel current – cell-based, automated electrophysiology, set II, rat KCNQ2, dose response (AID 588637); type: functional
[17] = cytotoxicity toward MDA-MB-231 breast cancer cells – cell-based, CellTiter-Glo luminescence, cherry-pick, cytotoxicity control for RAD54 inhibitor project, dose response (AID 651692); type: functional
[18] = biological target: T4, DNA repair protein RAD52 homolog (Homo sapiens, UniProt P43351); type: functional, biochemical
T4 sequence (P43351 whole entry): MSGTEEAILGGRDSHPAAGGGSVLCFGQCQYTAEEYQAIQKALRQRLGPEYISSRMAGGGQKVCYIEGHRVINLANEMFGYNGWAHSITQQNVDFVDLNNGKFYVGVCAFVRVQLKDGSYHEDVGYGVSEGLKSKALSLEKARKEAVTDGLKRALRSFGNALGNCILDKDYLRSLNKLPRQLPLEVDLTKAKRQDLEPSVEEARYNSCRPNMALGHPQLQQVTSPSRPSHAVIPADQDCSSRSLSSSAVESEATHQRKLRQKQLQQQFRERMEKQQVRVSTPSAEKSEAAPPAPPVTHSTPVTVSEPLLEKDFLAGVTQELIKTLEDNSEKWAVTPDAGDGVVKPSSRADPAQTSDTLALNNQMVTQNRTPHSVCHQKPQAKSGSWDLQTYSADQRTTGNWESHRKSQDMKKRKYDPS

[19] = biological target: T5, DNA repair and recombination protein RAD54-like (Homo sapiens, UniProt Q92698); test: RAD54 Holliday junction migration blockers – biochemical, fluorescence, cherry-picked samples, dose series, confirmation (AID 651657); type: functional
T5 sequence (Q92698 whole entry): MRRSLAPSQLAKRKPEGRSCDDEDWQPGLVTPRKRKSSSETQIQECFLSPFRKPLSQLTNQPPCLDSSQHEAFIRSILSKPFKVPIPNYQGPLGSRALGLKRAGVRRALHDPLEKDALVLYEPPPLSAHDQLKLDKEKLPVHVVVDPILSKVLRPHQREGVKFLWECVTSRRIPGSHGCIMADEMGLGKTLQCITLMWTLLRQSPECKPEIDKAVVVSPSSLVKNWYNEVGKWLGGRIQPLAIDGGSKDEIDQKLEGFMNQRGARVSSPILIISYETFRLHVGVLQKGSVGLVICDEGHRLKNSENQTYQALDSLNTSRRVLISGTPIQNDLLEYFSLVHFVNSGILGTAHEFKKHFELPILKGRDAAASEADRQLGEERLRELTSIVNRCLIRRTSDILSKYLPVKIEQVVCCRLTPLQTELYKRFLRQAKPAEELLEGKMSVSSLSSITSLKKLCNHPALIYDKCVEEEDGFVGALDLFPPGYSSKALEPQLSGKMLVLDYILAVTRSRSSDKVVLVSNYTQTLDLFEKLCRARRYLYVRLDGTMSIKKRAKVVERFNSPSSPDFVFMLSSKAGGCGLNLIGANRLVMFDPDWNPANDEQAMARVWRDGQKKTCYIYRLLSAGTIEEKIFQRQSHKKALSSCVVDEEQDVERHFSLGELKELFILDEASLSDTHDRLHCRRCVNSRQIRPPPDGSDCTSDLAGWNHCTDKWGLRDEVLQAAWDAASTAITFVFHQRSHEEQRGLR

[20] = biological target: T6, Neuropeptides B/W receptor type 1 (Homo sapiens, UniProt P48145); test: human NPBW1 receptor blockade, IC50 – cell-based, fluorescence, dose response, set 6, late-stage follow-up (AID 588583); type: functional
T6 sequence (P48145 whole entry): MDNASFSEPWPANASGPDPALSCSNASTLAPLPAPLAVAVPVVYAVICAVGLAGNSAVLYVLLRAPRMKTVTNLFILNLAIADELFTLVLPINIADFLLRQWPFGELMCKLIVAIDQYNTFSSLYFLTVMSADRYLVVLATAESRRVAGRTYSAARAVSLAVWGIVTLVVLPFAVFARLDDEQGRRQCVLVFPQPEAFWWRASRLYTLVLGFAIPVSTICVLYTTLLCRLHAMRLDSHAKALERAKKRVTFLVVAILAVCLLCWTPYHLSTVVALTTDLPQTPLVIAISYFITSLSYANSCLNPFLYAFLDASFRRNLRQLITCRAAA

[21] = biological target: Melanin-concentrating hormone receptor 1 (Homo sapiens, UniProt Q99705); test: Late-stage fluorescence-based counterscreen for antagonists of the G-protein coupled receptor 7 (GPR7): cell-based dose response assay to identify antagonists of the melanin-concentrating hormone receptor 1 (MCHR1) Set 6.; type: functional
Melanin-concentrating hormone receptor 1, sequence (Q99705 whole entry): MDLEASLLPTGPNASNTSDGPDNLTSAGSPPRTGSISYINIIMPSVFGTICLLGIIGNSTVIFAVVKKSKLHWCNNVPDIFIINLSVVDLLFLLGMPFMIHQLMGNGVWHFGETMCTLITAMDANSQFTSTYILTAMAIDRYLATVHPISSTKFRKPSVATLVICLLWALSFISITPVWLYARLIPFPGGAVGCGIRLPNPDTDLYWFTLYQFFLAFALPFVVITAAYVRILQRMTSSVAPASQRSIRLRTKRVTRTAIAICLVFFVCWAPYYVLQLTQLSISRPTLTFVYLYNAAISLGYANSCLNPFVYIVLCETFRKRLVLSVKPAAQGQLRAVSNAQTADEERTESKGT

Melanocortin receptor 4, sequence (P32245 whole entry): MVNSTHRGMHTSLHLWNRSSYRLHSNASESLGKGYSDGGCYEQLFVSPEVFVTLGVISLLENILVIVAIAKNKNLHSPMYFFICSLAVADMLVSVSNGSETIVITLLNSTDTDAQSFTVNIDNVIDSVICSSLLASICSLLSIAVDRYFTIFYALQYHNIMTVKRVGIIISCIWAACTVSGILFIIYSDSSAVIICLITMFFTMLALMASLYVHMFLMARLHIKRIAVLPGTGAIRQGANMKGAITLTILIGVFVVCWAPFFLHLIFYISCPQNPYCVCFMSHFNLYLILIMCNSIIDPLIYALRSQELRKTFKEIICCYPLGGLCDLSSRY
Potassium voltage-gated channel subfamily KQT member 2, sequence (O88943 whole entry): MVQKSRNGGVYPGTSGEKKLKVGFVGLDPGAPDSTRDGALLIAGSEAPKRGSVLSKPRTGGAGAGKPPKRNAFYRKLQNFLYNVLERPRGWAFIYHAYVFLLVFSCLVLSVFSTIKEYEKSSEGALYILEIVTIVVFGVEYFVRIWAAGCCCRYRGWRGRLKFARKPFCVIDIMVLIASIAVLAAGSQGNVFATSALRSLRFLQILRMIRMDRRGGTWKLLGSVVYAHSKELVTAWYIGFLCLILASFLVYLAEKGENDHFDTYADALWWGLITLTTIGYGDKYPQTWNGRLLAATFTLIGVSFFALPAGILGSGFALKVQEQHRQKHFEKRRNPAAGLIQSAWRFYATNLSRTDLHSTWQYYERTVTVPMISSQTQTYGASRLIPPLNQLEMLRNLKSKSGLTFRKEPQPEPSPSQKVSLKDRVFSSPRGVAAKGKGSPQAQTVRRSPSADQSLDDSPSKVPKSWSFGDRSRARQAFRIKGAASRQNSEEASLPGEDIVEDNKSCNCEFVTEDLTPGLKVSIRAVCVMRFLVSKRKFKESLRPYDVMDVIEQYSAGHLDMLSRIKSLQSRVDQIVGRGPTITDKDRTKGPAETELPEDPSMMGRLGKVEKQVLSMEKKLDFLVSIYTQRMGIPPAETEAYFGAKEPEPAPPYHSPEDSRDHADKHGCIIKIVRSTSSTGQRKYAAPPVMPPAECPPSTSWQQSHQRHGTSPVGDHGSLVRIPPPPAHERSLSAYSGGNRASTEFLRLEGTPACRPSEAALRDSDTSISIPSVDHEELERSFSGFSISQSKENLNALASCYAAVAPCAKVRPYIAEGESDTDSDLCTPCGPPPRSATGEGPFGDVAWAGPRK
Paired box protein Pax-8, sequence (Q06710 whole entry): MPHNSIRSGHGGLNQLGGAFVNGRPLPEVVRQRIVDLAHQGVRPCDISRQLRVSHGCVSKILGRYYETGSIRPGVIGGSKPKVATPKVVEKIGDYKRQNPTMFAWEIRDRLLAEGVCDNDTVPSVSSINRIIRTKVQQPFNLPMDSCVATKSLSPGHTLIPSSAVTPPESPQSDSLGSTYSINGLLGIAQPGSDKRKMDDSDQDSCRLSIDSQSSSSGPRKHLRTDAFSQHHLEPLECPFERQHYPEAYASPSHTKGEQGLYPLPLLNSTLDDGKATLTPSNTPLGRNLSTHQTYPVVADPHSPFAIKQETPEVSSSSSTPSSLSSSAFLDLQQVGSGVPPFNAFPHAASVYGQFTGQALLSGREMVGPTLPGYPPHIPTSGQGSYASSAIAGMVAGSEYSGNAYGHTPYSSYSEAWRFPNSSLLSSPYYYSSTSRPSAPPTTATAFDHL

O=C(Oc1cc2oc(=O)cc(-c3ccccc3)c2cc1Cl)C1CCCCC1
EC50 [1]: 2.32 µM (active)
IC50 (Interleukin-8 [2]): 9.8 µM (active)
EC50 [3]: > 150 µM (inactive)
IC50 (Interleukin-8 [4]): > 79 µM (inactive)

C=C1C(=O)[C@]23C[C@H]1CC[C@H]2[C@]1(C)[C@@H](OC(C)=O)CC[C@@](C)(C(=O)OC)[C@H]1C[C@@H]3OC(C)=O
AC50 (Paired box protein Pax-8): 3.62 µM (active)
AC50 [5]: 5.99 µM (active)
AC50 [6]: 13.6 µM (active)
AC50 [7]: 5.01 µM (active)
IC50 [8]: 3.1 µM (active)

CC(=O)Nc1ccc(N2S(=O)(=O)c3ccccc3S2(=O)=O)cc1
EC50 (Insulin-degrading enzyme [9]): > 54.7 µM (inactive)
EC50 (Insulin-degrading enzyme [10]): > 54.7 µM (inactive)
EC50 (HEK293 [11]): > 54.7 µM (inactive)
IC50 (HEK293 [12]): > 89.2 µM (inactive)

CC(C)c1ccc(NC(=O)CSc2ncccc2C(=O)Oc2cccc([N+](=O)[O-])c2)cc1
IC50 (Leucine aminopeptidase): 8.47 µM (active)
EC50 (Melanocortin receptor 4): > 89.2 µM (inactive)

Cc1cc(-c2ccccc2)n(-c2cc(N/N=C/c3ccccc3O)ncn2)n1
AbsAC35_uM [13]: 52.65 µM
IC50 [14]: 9.65 µM (active)
AC50 [15]: 703 nM (active)
AC50 (INS1): 4.06 µM (active)

COc1cc(-c2cc(C(=O)N(C)Cc3ccccc3)c3ccccc3n2)cc(OC)c1OC
IC50 [16]: 634 nM (active)

CC(=O)Nc1cc(-c2cccc(C(=O)NCCN(C)C)c2)cn2c(-c3ccc(C(C)=O)cc3)cnc12
AC50 [17]: 31.8 µM (active)
AC50 [18]: 2.12 µM (active)
AC50 [19]: 16.1 µM (active)

COc1ccc(Oc2c(Cl)cnn(Cc3cc(-c4ccccc4)n(-c4ccccc4)n3)c2=O)cc1
IC50 [20]: > 20 µM (inactive)
IC50 [21]: > 20 µM (inactive)

Cc1c(C(C#N)c2ccccc2)cnn(Cc2cccc3ccccc23)c1=O (stereo unspecified)
IC50 [20]: 3.99 µM (active)
IC50 [21]: 3.99 µM (active)

Cc1ccc(Cn2nc(C)c(C(=O)N3CCN(S(=O)(=O)/C=C/c4ccccc4)CC3)c2C)cc1
EC50 (Insulin-degrading enzyme [9]): > 54.7 µM (inactive)
EC50 (Insulin-degrading enzyme [10]): > 54.7 µM (inactive)
EC50 (HEK293 [11]): > 54.7 µM (inactive)
IC50 (HEK293 [12]): > 89.2 µM (inactive)
